“And” between values parts separate entries of the source, which are not always exact repeats. Equal entries are not always repeated.
How the values were obtained:
cultured satellite cells = assay: Flow cytometry of CXCR4 and β-1 Integrin on cultured satellite cells; type: cell-based, mouse; settings: after 5 days in culture, FACS
Experimental: FIG. 5C, GFP^+ satellite cells were harvested from β-actin GFP mice and were transplanted into TA muscle of recipient mdx mice, injured 1 day previously by injection of cardiotoxin, either right after isolation or after five days in culture with DMSO or forskolin treatment. […] Scale bars represent 200 μm.
Flow cytometry analysis was performed using a BD LSR II, provided through the Harvard Stem Cell Institute Flow Cytometry Core Facility. Flow cytometry data were collected using DIVA (Becton Dickinson (BD), Franklin Lakes, N.J.) software and analyzed offline using Flowjo software (Tree Star, Inc., Macintosh version 8.1.1, Ashland, Oreg.). Antibodies used for flow cytometry included: APC/Cy7 anti-mouse Ter119, clone Ter119 (1:200, Biolegend 116223), APC/Cy7 anti-mouse CD45, clone 30-F11 (1:200, Biolegend 103116), APC/Cy7 anti-mouse CD11b, clone M1/70 (1:200, Biolegend 101226), APC Anti-mouse Ly-6A/E (Sca-1), clone D7 (1:200, Biolegend 108112), Biotin anti-mouse CD184 (CXCR4, Fusin) (1:100, BD Biosciences 551968), Streptavidin PE-Cy7 (1:100, eBioscience 25-4317-82), PE anti-mouse/rat CD29 Antibody (1:100, Biolegend 102208). Live cells were identified by positive staining with calcein blue (1:1000) (Invitrogen, Carlsbad, Calif.) and negative staining for propidium iodide (PI, 1 μg/mL). […]

[1] = system: satellite cells from C57BL/6J mice; assay: In vitro expansion of mouse satellite cells (cell count); type: cell-based; settings: 5 days in culture
Experimental: (§1) SMP isolation was performed as previously described (Cerletti et al., 2008; Sherwood et al., 2004). Briefly, MFA cells were prepared from intact skeletal muscles (EDL, gastrocnemius, quadriceps, soleus, TA, triceps brachii, abdominal) by digesting the muscles with collagenase type II and then dispase enzymes. MFA cells were stained for isolation of CD45^−Sca-1^−Mac-1^−CXCR4^+ b1-integrin^+ cell population by FACS. For in vitro expansion experiments, SMPs were seeded on collagen/laminin-coated plates in F10 (Gibco) containing 20% horse serum (Atlanta Biologics), 1% penicillin-streptomycin (Invitrogen) and 1% glutamax (Invitrogen). […] Cells were counted or used for transplantation after 5 days in culture. For Myogenic colony formation assay cells were fixed and counted after 6 days in culture. […]
(§2) Cultured SMPs were fixed in 4% paraformaldehyde (PFA) and stained with 10 μg/ml Hoechst (Invitrogen). […] The images were analyzed and numbers of cells were counted by the built-in software. […] The images were analyzed and percentage of nuclei in myotubes was calculated using a modified ImageJ macro developed in-house. […]
(§3) We hypothesized that the chemical hits enhancing skeletal muscle development in zebrafish blastomeres may likewise promote muscle precursor cell formation and/or expansion in other species. […] Cell number in the resulting colonies was determined after 5 days in culture.

[2] = system: satellite cells from mdx mice; assay: In vitro expansion of mdx satellite cells (cell count); type: cell-based, mouse; settings: 5 days in culture
Experimental: as §1, §2, §3

[3] = system: cAMP levels in mouse satellite cell cultures; assay: cAMP-Glo assay in cultured satellite cells; type: cell-based
Experimental: cAMP assay was performed using the cAMP-Glo™ Assay kit (Promega) according to the manufacturer's protocol.
To test forskolin's effect on satellite cell survival and proliferation, single cells were plated at one cell per well in 96-well plates and treated with forskolin or DMSO. After six days in vitro culture, we quantified the number of wells containing any number of myogenic cells (a measure of cell survival) and the number of cells in those wells (a measure of cell proliferation) (FIG. 3D).

C=C[C@@]1(C)CC(=O)[C@]2(O)[C@@]3(C)[C@@H](O)CCC(C)(C)[C@@H]3[C@H](O)[C@H](OC(C)=O)[C@@]2(C)O1 [forskolin]
frequency of cells co-expressing CXCR4 and β-1 Integrin (cultured satellite cells): 78.9%+/−1.52% and ~80% | total number of cells, fold change compared to DMSO treated cells ([1]; absence of bFGF): ~2 folds | total number of cells, fold change compared to DMSO treated cells ([1]; presence of bFGF): ~2.3 folds | fold change of number of satellite cells compared to DMSO [2]: ~3.6 folds | concentration of cAMP, fold increase compared to DMSO treated cells ([3]; 25 μM forskolin): ~4.5 fold | concentration of cAMP, fold increase compared to DMSO treated cells ([3]; 50 μM forskolin): ~5.2 fold | concentration of cAMP, fold increase compared to DMSO treated cells ([3]; 100 μM forskolin): ~5.7 fold
